From patent EP4725957A1, “GROUP OF CYCLIC ALKALINE LIPOPEPTIDE COMPOUNDS, AND PREPARATION METHOD THEREFOR AND USE THEREOF” (Institute of Medicinal Biotechnology, Chinese Academy of …, priority 2023, dated 2024)
In brackets after ≈: the same amount, converted by molar mass. Numbered stars: 1 amine (or outer) side, 2 acyl side, 3 side chain; on linkers, the order of the positions; unused ones are H or OH. Bridge positions count the residues as written; N and C are the ends. Square brackets hold non-standard residues; d marks the D form. Peptide text beside a SMILES is read from it. * marks the point of attachment. X3 = O=C([C@@H](Cc1ccc(CS(=O)(=O)O)cc1)N[*:1])[*:2]; Heptanoyl(6-Me) = CC(C)CCCCC(=O)*; Sulfomethyl = O=S(=O)(O)C*; X1 = CC[C@H](C)CCCCC(=O)*; Heptanoyl = CCCCCCC(=O)*; Dab = NCC[C@H](N)C(=O)O; Dap = NC[C@H](N)C(=O)O

Experiments:
Type in all cases: cell-based
[1] = Nephrotoxicity assay: in vitro cytotoxicity of HK-2 cells by CCK-8 assay; conditions: human, HK-2 cells (human renal), 72 h incubation with drug-containing medium
Protocol: In vitro cytotoxicity detection of HK-2 cells was performed by the CCK-8 assay.
The culture medium for human renal HK-2 cells was a complete RPMI-1640 medium (Invitrogen) supplemented with 10% fetal bovine serum (FBS, Gibco). The cryopreservation solution was composed of 90% FBS and 10% dimethyl sulfoxide (DMSO), and the cells were preserved long-term in liquid nitrogen. Cells were cultured in a sterile incubator with a humidified atmosphere containing 5% CO2 at 37°C. When the cell density reached 70%-80%, cell digestion and subculture were conducted. The cyclic lipopeptide compounds prepared in Examples 1-120 were weighed and dissolved in sterile water to prepare a mother solution with a concentration of 1 mg/mL. Drug-containing culture media were then formulated, with the final concentrations set as 500, 250, 200, 100, 50, 25, and 12.5 µg/mL, respectively. Cells were adjusted to a density of 5 × 10^4 cells/mL and seeded into 96-well plates, with 100 µL of cell suspension added to each well. After stable incubation for 24 h, the original medium was replaced with the prepared drug-containing medium, and the plates were incubated in the incubator for an additional 72 h. The medium was gently aspirated, and 100 µL of blank medium containing 10% CCK-8 was added to each well. After incubation in the incubator for 3 h, the optical density (OD) values at 450 nm were measured using a BIOTEK microplate reader. The experiment was repeated three times. For each replicate, polymyxin B was set as the positive drug, and a drug-free blank group was established as the control. The cell viability (%) was calculated by the formula: Cell viability (%) = [(OD of drug-treated group - OD of zero-setting) / (OD of drug-free group - OD of zero-setting)] × 100%. The half-maximal inhibitory concentration (IC50) values were calculated through logarithmic regression analysis.
The cells used for the nephrotoxicity assay were obtained from the ATCC ( American Type Culture Collection). The Cell Counting Kit-8 (CCK-8) used in the assay was supplied by Beyotime Biotechnology Co., Ltd.

[2] = system: Acinetobacter baumannii ABA19-1; conditions: ABA19-1
Protocol: (§1) The minimal inhibitory concentration (MIC) was determined by the broth microdilution method according to the recommended procedures of the Clinical and Laboratory Standards Institute (CLSI).
(§2) An appropriate amount of the cyclic lipopeptide compounds prepared in Examples 1-120 and the reference standards were weighed and dissolved in sterile pure water. An appropriate volume of the mother solution was subjected to ten-fold dilution with sterile Mueller-Hinton (MH) broth to a concentration of 0.256 mg/mL. Half of the drug solution was aliquoted into 96-well reagent reservoirs, while the other half was subjected to two-fold serial dilution with sterile MH broth before being transferred into deep-well reagent reservoirs. The above steps were repeated, so that the drug concentrations in the reagent reservoirs were adjusted to 128, 64, 32, 16, 8, 4, 2, 1, 0.5, 0.25, 0.125 and 0.06 mg/L in sequence, and all solutions were prepared and used immediately. Several colonies were picked from agar plates cultured for 18-24 h and directly suspended in sterile normal saline, and the concentration of the bacterial suspension was adjusted to 0.5 McFarland units. The calibrated bacterial suspension was diluted with MH broth to a concentration of (4-8) × 10^5 colony-forming units per milliliter (CFU/mL) and prepared and used immediately. A volume of 100 µL of the aforementioned compounds of the present disclosure (e.g., the compounds prepared in the examples) and reference solutions at different concentrations was separately pipetted into wells 1 to 12 of sterile 96-well polystyrene plates, and an additional 100 µL of the aforementioned inoculum was added to each well. The final concentrations of the samples in the wells were adjusted to 64, 32, 16, 8, 4, 2, 1, 0.5, 0.25, 0.125, 0.06 and 0.03 mg/L, respectively, and the final concentration of the inoculum in each well was (2-4) × 10^5 CFU/mL. Additional growth control wells were set up, each containing 100 µL of the inoculum and 100 µL of sterile MH broth. The test substances and inocula in all wells were mixed thoroughly and then sealed. The inoculated 96-well plates were incubated in an incubator at 35-37°C for 16-20 h.
(§3) The strains used for the antibacterial activity assay were obtained from the American Type Culture Collection (ATCC) and clinical isolates.
(§4) The strains employed for the antibacterial activity assay included Escherichia coli ATCC BAA-2523, ATCC BAA-2340 (KPC), Klebsiella pneumoniae KPN+19-15, ATCC BAA-1705 (KPC), Pseudomonas aeruginosa PAE19-3, ATCC 27853, Acinetobacter baumannii ABA19-1, and NCTC 13304 (OXA-27).

[3] = system: Acinetobacter baumannii NCTC 13304 (OXA-27); conditions: NCTC 13304
Protocol: as §1, §2, §3, §4

[4] = system: Pseudomonas aeruginosa PAE19-3; conditions: PAE19-3
Protocol: as §1, §2, §3, §4

[5] = system: Klebsiella pneumoniae ATCC BAA-1705 (KPC); conditions: ATCC BAA-1705
Protocol: as §1, §2, §3, §4

[6] = system: Pseudomonas aeruginosa ATCC 27853; conditions: ATCC 27853
Protocol: as §1, §2, §3, §4

[7] = system: Escherichia coli ATCC BAA-2523; conditions: ATCC BAA-2523
Protocol: as §1, §2, §3, §4

[8] = system: Escherichia coli ATCC BAA-2340 (KPC); conditions: ATCC BAA-2340
Protocol: as §1, §2, §3, §4

[9] = system: Klebsiella pneumoniae KPN+19-15; conditions: KPN+19-15
Protocol: as §1, §2, §3, §4

SMILES: CC(C)CCCCC(=O)N[C@@H](CCN)C(=O)N[C@H](C(=O)N[C@H](CO)C(=O)N[C@H]1CCNC(=O)[C@H]([C@@H](C)O)NC(=O)[C@H](CCN)NC(=O)[C@H](CCN)NC(=O)[C@H]([C@@H](C)O)NC(=O)[C@@H](Cc2ccc(CS(=O)(=O)O)cc2)NC(=O)[C@H](CCN)NC1=O)[C@@H](C)O [Compound 107, 6-methylheptanoyl-Dab-Thr-D-Ser-ring(4-10)[Dab-Dab-D-Phe(4-CH2SO3H)-Thr-Dab-Dab-Thr]] ({Heptanoyl(6-Me)}-[Dab]T[dS][Dab][Dab][X3]T[Dab][Dab]T; lactam 4-C)
- IC50 at 72 h [1]: > 500 µg/mL
- MIC [2]: 0.06 µg/mL (≈ 0.0477 µM)
- MIC [3]: 0.06 µg/mL (≈ 0.0477 µM)
- MIC [4]: 0.25 µg/mL (≈ 0.199 µM)
- MIC [5]: 0.125 µg/mL (≈ 0.0993 µM)
- MIC [6]: 0.25 µg/mL (≈ 0.199 µM)
- MIC [7]: 0.03 µg/mL (≈ 0.0238 µM)
- MIC [8]: 0.03 µg/mL (≈ 0.0238 µM)
- MIC [9]: 0.125 µg/mL (≈ 0.0993 µM)

SMILES: CC[C@H](C)CCCCC(=O)N[C@@H](CCN)C(=O)N[C@H](C(=O)N[C@H](CO)C(=O)N[C@H]1CCNC(=O)[C@H]([C@@H](C)O)NC(=O)[C@H](CCN)NC(=O)[C@H](CN)NC(=O)[C@H]([C@@H](C)O)NC(=O)[C@@H](Cc2ccccc2)NC(=O)[C@H](CCN)NC1=O)[C@@H](C)O [Compound 71, (S)-6-methyloctanoyl-Dab-Thr-D-Ser-ring(4-10)[Dab-Dab-D-Phe-Thr-Dap-Dab-Thr]] (X1-[Dab]T[dS][Dab][Dab][dF]T[Dap][Dab]T; lactam 4-C)
- IC50 at 72 h [1]: > 500 µg/mL
- MIC [2]: 0.06 µg/mL (≈ 0.0515 µM)
- MIC [3]: ≤0.03 µg/mL
- MIC [4]: 64 µg/mL (≈ 55 µM)
- MIC [5]: 0.25 µg/mL (≈ 0.215 µM)
- MIC [6]: >64 µg/mL
- MIC [7]: ≤0.03 µg/mL
- MIC [8]: ≤0.03 µg/mL
- MIC [9]: 0.5 µg/mL (≈ 0.429 µM)

SMILES: CCCCCCC(=O)N[C@@H](CCN)C(=O)N[C@H](C(=O)N[C@H](CO)C(=O)N[C@H]1CCNC(=O)[C@H]([C@@H](C)O)NC(=O)[C@H](CCN)NC(=O)[C@H](CCN)NC(=O)[C@H]([C@@H](C)O)NC(=O)[C@@H](Cc2ccccc2)NC(=O)[C@H](CN)NC1=O)[C@@H](C)O [Compound 64, Heptanoyl-Dab-Thr-D-Ser-ring(4-10)[Dab-Dap-D-Phe-Thr-Dab-Dab-Thr]] (Heptanoyl-[Dab]T[dS][Dab][Dap][dF]T[Dab][Dab]T; lactam 4-C)
- IC50 at 72 h [1]: > 500 µg/mL
- MIC [2]: 0.25 µg/mL (≈ 0.22 µM)
- MIC [3]: 0.25 µg/mL (≈ 0.22 µM)
- MIC [4]: 8 µg/mL (≈ 7.04 µM)
- MIC [5]: 0.25 µg/mL (≈ 0.22 µM)
- MIC [6]: 64 µg/mL (≈ 56.3 µM)
- MIC [7]: 0.25 µg/mL (≈ 0.22 µM)
- MIC [8]: 0.25 µg/mL (≈ 0.22 µM)
- MIC [9]: 0.5 µg/mL (≈ 0.44 µM)

SMILES: CC(C)CCCCC(=O)N[C@@H](CCN)C(=O)N[C@H](C(=O)N[C@@H](CN)C(=O)N[C@H]1CCNC(=O)[C@H]([C@@H](C)O)NC(=O)[C@H](CCN)NC(=O)[C@H](CCN)NC(=O)[C@H]([C@@H](C)O)NC(=O)[C@@H](Cc2ccccc2)NC(=O)[C@H](CCN)NC1=O)[C@@H](C)OCS(=O)(=O)O [Compound 113, 6-methylheptanoyl-Dab-Thr(CH2SO3H)-Dap-ring(4-10)[Dab-Dab-D-Phe-Thr-Dab-Dab-Thr]] ({Heptanoyl(6-Me)}-[Dab]T(Sulfomethyl)[Dap][Dab][Dab][dF]T[Dab][Dab]T; lactam 4-C)
- IC50 at 72 h [1]: > 500 µg/mL
- MIC [2]: 0.06 µg/mL (≈ 0.0477 µM)
- MIC [3]: 0.06 µg/mL (≈ 0.0477 µM)
- MIC [4]: 0.25 µg/mL (≈ 0.199 µM)
- MIC [5]: 0.125 µg/mL (≈ 0.0994 µM)
- MIC [6]: 0.25 µg/mL (≈ 0.199 µM)
- MIC [7]: 0.03 µg/mL (≈ 0.0239 µM)
- MIC [8]: 0.03 µg/mL (≈ 0.0239 µM)
- MIC [9]: 0.125 µg/mL (≈ 0.0994 µM)
